In this experiment the test system is Bovine cardiac myofibrils. As to the kind of experiment: In vitro model of dose-dependent myofibril ATPase modulation (AC1.4, pyruvate kinase/lactate dehydrogenase-coupled ATPase assay at pCa25). Format: biochemical. Particulars: concentration at which ATPase activity was 1.4-fold higher than the bottom of the dose curve, mean of a minimum of two independent tests. The method, then:
In vitro Model of Dose-Dependent Myofibril ATPase Modulation: Dose responses were measured using a calcium-buffered, pyruvate kinase and lactate dehydrogenase-coupled ATPase assay containing the following reagents (concentrations expressed are final assay concentrations): Potassium PIPES (12 mM), MgCl2 (2 mM), ATP (1 mM), DTT (1 mM), BSA (0.1 mg/mi), NADH (0.5 mM), PEP (1.5 mM), pyruvate kinase (4 U/ml), lactate dehydrogenase (8 U/ml), and antifoam (90 ppm). The pH was adjusted to 6.80 at 22° C. by addition of potassium hydroxide.
Bovine cardiac myofibrils were obtained by homogenizing the appropriate tissue in the presence of detergent. Such treatment removes membranes and majority of soluble cytoplasmic proteins but leaves intact cardiac sarcomeric acto-myosin apparatus. Concentrations of myofibrils were adjusted to achieve the necessary rate of ATP hydrolysis (typically 0.25-1.0 mg/ml).
Assays were performed by first preparing a dilution series of test chemical entity, each with an assay mixture containing potassium Pipes, MgCl2, BSA, DTT, pyruvate kinase, lactate dehydrogenase, myofibrils, antifoam, EGTA, CaCl2, and water. The assay was started by adding an equal volume of solution containing potassium Pipes, MgCl2, BSA, DTT, ATP, NADH, PEP, antifoam, and water. ATP hydrolysis was monitored by absorbance at 340 nm. The resulting dose response curve was fit by the 4 parameter equation y=Bottom+((Top−Bottom)/(1+((EC50/X)^Hill))). […] AC1.4 values reported in the table below are mean values based on a minimum of two independent tests.

For the compound “1-(((3S)-1-(((6R)-6-hydroxy-2-azaspiro[3.4]oct-2-yl)sulfonyl)-3-piperidinyl)carbonyl)-N-(4-(trifluoromethyl)benzyl)-D-prolinamide,1-(((3S)-1-(((6S)-6-hydroxy-2-azaspiro[3.4]oct-2-yl)sulfonyl)-3-piperidinyl)carbonyl)-N-(4-(trifluoromethyl)benzyl)-D-prolinamide [Example 750]”, the AC1.4 came to 7.331 µM.
To `N#CC1CN(S(=O)(=O)c2cccc(C(=O)N3c4ccccc4CC3C(=O)NCc3ccc(C(F)(F)F)cc3)c2)C1` (racemic) [Example 481, (2R)-1-((3-((3-cyano-1-azetidinyl)sulfonyl)phenyl)carbonyl)-N-(4-(trifluoromethyl)benzyl)-2,3-dihydro-1H-indole-2-carboxamide and (2S)-1-((3-((3-cyano-1-azetidinyl)sulfonyl)phenyl)carbonyl)-N-(4-(trifluoromethyl)benzyl)-2,3-dihydro-1H-indole-2-carboxamide] belongs 2.157 µM; to `N#CC1CN(S(=O)(=O)N2CCC[C@H](C(=O)N3CCC[C@@H]3C(=O)N[C@@H](c3cc(F)c(Cl)cc3F)C3CNC3)C2)C1` (single isomer, unassigned) [Example 558], 2.928 µM.
Next, `O=C(N[C@@H](c1cc(F)c(C(F)(F)F)cc1F)[C@H]1C[C@@H](O)C1)[C@H]1C[C@H]2C[C@H]2N1C(=O)c1ccnc(C(F)F)c1` (stereo in doubt) [Example 830, (1R,3R,5R)-N-((R)-(2,5-difluoro-4-(trifluoromethyl)phenyl)((1s,3S)-3-hydroxycyclobutyl)methyl)-2-(2-(difluoromethyl)isonicotinoyl)-2-azabicyclo[3.1.0]hexane-3-carboxamide]: 0.6694 µM; `N#CC1CN(S(=O)(=O)c2cccc(C(=O)N3CCC[C@@H]3C(=O)N[C@H](CC3CC3)c3ccc(C(F)(F)F)cc3)c2)C1` [Example 1, 1-(3-((3-cyano-1-azetidinyl)sulfonyl)benzoyl)-N-((1R)-2-cyclopropyl-1-(4-(trifluoromethyl)phenyl)ethyl)-D-prolinamide]: 0.01405 µM; `N#CC1CN(S(=O)(=O)N2CCC[C@H](C(=O)N3CCC[C@@H]3C(=O)N[C@@H](c3ccc(Cl)cc3F)C3CC3)C2)C1` [Example 2, N-((R)-(4-chloro-2-fluorophenyl)(cyclopropyl)methyl)-1-(((3S)-1-((3-cyano-1-azetidinyl)sulfonyl)-3-piperidinyl)carbonyl)-D-prolinamide]: 0.01475 µM.
In turn, `CC[C@@H](NC(=O)[C@H]1CCCN1C(=O)c1cccc(S(=O)(=O)N2CC(C#N)C2)c1)c1ccc(C(F)(F)F)cc1` [Example 3, 1-(3-((3-cyano-1-azetidinyl)sulfonyl)benzoyl)-N-((1R)-1-(4-(trifluoromethyl)phenyl)propyl)-D-prolinamide] displayed an AC1.4 of 0.01635 µM.
To `CC[C@@H](NC(=O)[C@H]1CCCN1C(=O)[C@H]1CCCN(S(=O)(=O)N2CC(C#N)C2)C1)c1ccc(C(F)(F)F)cc1F` [Example 4, 1-(((3S)-1-((3-cyano-1-azetidinyl)sulfonyl)-3-piperidinyl)carbonyl)-N-((1R)-1-(2-fluoro-4-(trifluoromethyl)phenyl)propyl)-D-prolinamide] belongs 0.01635 µM; to `N#CC1CN(S(=O)(=O)c2cccc(C(=O)N3C[C@H]4C[C@H]4[C@@H]3C(=O)NCc3ccc(C(F)(F)F)cc3)c2)C1` [Example 5], 0.01655 µM; to `C[C@@H](NC(=O)[C@H]1CC(F)(F)CN1C(=O)c1cccc(S(=O)(=O)N2CC(C#N)C2)c1)c1ccc(C(F)(F)F)cc1` [Example 6, 1-((3-((3-cyano-1-azetidinyl)sulfonyl)phenyl)carbonyl)-4,4-difluoro-N-((1R)-1-(4-(trifluoromethyl)phenyl)ethyl)-D-prolinamide], 0.0171 µM.
Next, `N#CC1CN(S(=O)(=O)c2cccc(C(=O)N3CCC[C@@H]3C(=O)N[C@H](CC(F)(F)F)c3ccc(C(F)(F)F)cc3)c2)C1` [Example 7, 1-(3-((3-cyano-1-azetidinyl)sulfonyl)benzoyl)-N-((1R)-3,3,3-trifluoro-1-(4-(trifluoromethyl)phenyl)propyl)-D-prolinamide]: 0.01905 µM.
Next, `N#CC1CN(S(=O)(=O)c2cccc(C(=O)N3CC(F)(F)C[C@@H]3C(=O)NCc3ccc(C(F)(F)F)cc3)c2)C1` [Example 8, 1-((3-((3-cyano-1-azetidinyl)sulfonyl)phenyl)carbonyl)-4,4-difluoro-N-(4-(trifluoromethyl)benzyl)-D-prolinamide]: 0.0198 µM.
Turning to `CC(C)[C@@H](NC(=O)[C@H]1CCCN1C(=O)[C@H]1CCCN(S(=O)(=O)N2CC(C#N)C2)C1)c1ccc(C(F)(F)F)cc1F` [Example 9, 1-(((3S)-1-((3-cyano-1-azetidinyl)sulfonyl)-3-piperidinyl)carbonyl)-N-((1R)-1-(2-fluoro-4-(trifluoromethyl)phenyl)-2-methylpropyl)-D-prolinamide], the AC1.4 was determined as 0.01995 µM.
Next, `CC(C)[C@@H](NC(=O)[C@H]1CCCN1C(=O)c1cccc(S(=O)(=O)N2CC(C#N)C2)c1)c1ccc(C(F)(F)F)cc1F` [Example 10, 1-(3-((3-cyano-1-azetidinyl)sulfonyl)benzoyl)-N-((1R)-1-(2-fluoro-4-(trifluoromethyl)phenyl)-2-methylpropyl)-D-prolinamide]: 0.02115 µM; `N#CC1CN(S(=O)(=O)N2CCC[C@H](C(=O)N3CCC[C@@H]3C(=O)N[C@@H](c3ccc(C(F)(F)F)cc3)C3CC3)C2)C1` [Example 11, 1-(((3S)-1-((3-cyano-1-azetidinyl)sulfonyl)-3-piperidinyl)carbonyl)-N-((R)-cyclopropyl(4-(trifluoromethyl)phenyl)methyl)-D-prolinamide]: 0.0215 µM; `CC[C@@H](NC(=O)[C@H]1CCCN1C(=O)c1cccc(S(=O)(=O)N2CC(C#N)C2)c1)c1ccc(C(F)(F)F)cc1F` [Example 12, 1-(3-((3-cyano-1-azetidinyl)sulfonyl)benzoyl)-N-((1R)-1-(2-fluoro-4-(trifluoromethyl)phenyl)propyl)-D-prolinamide]: 0.0216 µM.
For `N#CC1CN(S(=O)(=O)N2CCC[C@H](C(=O)N3CCC[C@@H]3C(=O)N[C@H](CC3CC3)c3ccc(C(F)(F)F)cc3)C2)C1` [Example 14, 1-(((3S)-1-((3-cyano-1-azetidinyl)sulfonyl)-3-piperidinyl)carbonyl)-N-((1R)-2-cyclopropyl-1-(4-(trifluoromethyl)phenyl)ethyl)-D-prolinamide], the AC1.4 came to 0.0227 µM.
To `N#CC1CN(S(=O)(=O)c2cccc(C(=O)N3CC4(CC4)C[C@@H]3C(=O)NCc3ccc(C(F)(F)F)cc3)c2)C1` [Example 15, (6R)-5-((3-((3-cyano-1-azetidinyl)sulfonyl)phenyl)carbonyl)-N-(4-(trifluoromethyl)benzyl)-5-azaspiro[2.4]heptane-6-carboxamide] belongs 0.02315 µM; to `C[C@@H](NC(=O)[C@H]1CCCN1C(=O)c1cc(F)cc(S(=O)(=O)N2CC(C#N)C2)c1)c1ccc(C(F)(F)F)cc1` [Example 16, 1-((3-((3-cyano-1-azetidinyl)sulfonyl)-5-fluorophenyl)carbonyl)-N-((1R)-1-(4-(trifluoromethyl)phenyl)ethyl)-D-prolinamide], 0.0238 µM; to `CC[C@@H](NC(=O)[C@H]1CCCN1C(=O)[C@H]1CCCN(S(=O)(=O)N2CC(C#N)C2)C1)c1ccc(C(F)(F)F)cc1` [Example 17, 1-(((3S)-1-((3-cyano-1-azetidinyl)sulfonyl)-3-piperidinyl)carbonyl)-N-((1R)-1-(4-(trifluoromethyl)phenyl)propyl)-D-prolinamide], 0.02445 µM.
Compound `C[C@@H](NC(=O)[C@H]1COCCN1C(=O)c1cccc(S(=O)(=O)N2CC(C#N)C2)c1)c1ccc(C(F)(F)F)cc1` [Example 19, (R)-4-(3-((3-cyanoazetidin-1-yl)sulfonyl)benzoyl)-N—((R)-1-(4-(trifluoromethyl)phenyl)ethyl)morpholine-3-carboxamide] yielded an AC1.4 of 0.02495 µM.
To `N#CC1CN(S(=O)(=O)N2CCC[C@H](C(=O)N3CCC[C@@H]3C(=O)NCc3cc(F)c(Cl)cc3F)C2)C1` [Example 20, N-(4-chloro-2,5-difluorobenzyl)-1-(((3S)-1-((3-cyano-1-azetidinyl)sulfonyl)-3-piperidinyl)carbonyl)-D-prolinamide] belongs 0.02545 µM; to `N#CC1CN(S(=O)(=O)c2cccc(C(=O)N3CCC[C@@H]3C(=O)NCc3ccc(Cl)c(Cl)c3)c2)C1` [Example 22, 1-((3-((3-cyano-1-azetidinyl)sulfonyl)phenyl)carbonyl)-N-(3,4-dichlorobenzyl)-D-prolinamide], 0.02715 µM.
To `CCNc1ccc(C)cc1C(=O)N1[C@@H](C(=O)N[C@@H](c2ccc(C(F)(F)F)cc2F)C2COC2)C[C@H]2C[C@H]21` [Example 23, (1R,3R,5R)-2-(2-(ethylamino)-5-methylbenzoyl)-N-((R)-(2-fluoro-4-(trifluoromethyl)phenyl)(3-oxetanyl)methyl)-2-azabicyclo[3.1.0]hexane-3-carboxamide] belongs 0.0287 µM.

The values above are taken from patent US11780826B2 (Amgen Inc., priority 2017, dated 2023).
